The values that follow come from patent EP4759815A1, “FUSED TRICYCLIC COMPOUND, PHARMACEUTICAL COMPOSITION THEREOF, AND USE THEREOF” (Haihe Biopharma Co., Ltd., priority 2023, dated 2025).

Where two headings read alike, the source gives them in different places.

One data set has as its system MDA-MB-436 cells. Description: MDA-MB-436 cell proliferation inhibition test (CellTiter-Glo, 7 days). In kind it is cell-based. To be noted: Homo sapiens, MDA-MB-436, 168 h, 7 days incubation.
Data set [1] concerns the target Recombinant human PARP1 protein (Homo sapiens, UniProt P09874). Nature of the data set: PARP1 inhibitory activity (histone substrate, chemiluminescent ELISA). The data set is classed as biochemical. The note with it: for PARP1/2 Fold selectivity: ratio of PARP2 IC50 to PARP1 IC50. Background: In an ELISA, binding on a coated surface is turned into a signal by an enzyme label.

Data set [2] is described as follows: Preliminary pharmacokinetic tests in mice. The data set is classed as in vivo. To be noted: male, ICR.
The target of data set [3] is T1, recombinant human PARP2 protein (Homo sapiens, UniProt Q9UGN5).
T1 construct: purchased BPS 80502
T1 sequence (Q9UGN5 whole entry): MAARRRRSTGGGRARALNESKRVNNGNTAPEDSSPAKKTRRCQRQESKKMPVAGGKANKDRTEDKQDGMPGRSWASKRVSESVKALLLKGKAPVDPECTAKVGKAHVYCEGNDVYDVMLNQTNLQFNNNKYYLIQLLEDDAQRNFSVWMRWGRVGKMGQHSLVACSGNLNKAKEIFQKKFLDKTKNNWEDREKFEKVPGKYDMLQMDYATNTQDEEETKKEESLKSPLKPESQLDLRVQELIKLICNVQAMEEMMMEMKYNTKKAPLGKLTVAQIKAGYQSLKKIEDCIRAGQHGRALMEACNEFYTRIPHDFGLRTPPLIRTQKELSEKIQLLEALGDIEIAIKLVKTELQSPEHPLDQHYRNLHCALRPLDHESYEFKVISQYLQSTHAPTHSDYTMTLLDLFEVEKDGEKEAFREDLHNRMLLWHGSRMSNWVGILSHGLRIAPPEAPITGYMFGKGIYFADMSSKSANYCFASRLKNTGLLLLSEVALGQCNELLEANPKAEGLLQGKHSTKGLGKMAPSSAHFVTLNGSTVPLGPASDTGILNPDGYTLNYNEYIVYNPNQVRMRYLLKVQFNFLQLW
Description: PARP2 inhibitory activity (histone substrate, chemiluminescent ELISA). In kind it is biochemical.

Setting [4] is: histone substrate, 500 µM NAD+ added to the substrate solution, read-out: PARP1 IC50.
[5] abbreviates: histone substrate, read-out: PARP2 IC50.

Chain of Recombinant human PARP1 protein (P09874 whole entry): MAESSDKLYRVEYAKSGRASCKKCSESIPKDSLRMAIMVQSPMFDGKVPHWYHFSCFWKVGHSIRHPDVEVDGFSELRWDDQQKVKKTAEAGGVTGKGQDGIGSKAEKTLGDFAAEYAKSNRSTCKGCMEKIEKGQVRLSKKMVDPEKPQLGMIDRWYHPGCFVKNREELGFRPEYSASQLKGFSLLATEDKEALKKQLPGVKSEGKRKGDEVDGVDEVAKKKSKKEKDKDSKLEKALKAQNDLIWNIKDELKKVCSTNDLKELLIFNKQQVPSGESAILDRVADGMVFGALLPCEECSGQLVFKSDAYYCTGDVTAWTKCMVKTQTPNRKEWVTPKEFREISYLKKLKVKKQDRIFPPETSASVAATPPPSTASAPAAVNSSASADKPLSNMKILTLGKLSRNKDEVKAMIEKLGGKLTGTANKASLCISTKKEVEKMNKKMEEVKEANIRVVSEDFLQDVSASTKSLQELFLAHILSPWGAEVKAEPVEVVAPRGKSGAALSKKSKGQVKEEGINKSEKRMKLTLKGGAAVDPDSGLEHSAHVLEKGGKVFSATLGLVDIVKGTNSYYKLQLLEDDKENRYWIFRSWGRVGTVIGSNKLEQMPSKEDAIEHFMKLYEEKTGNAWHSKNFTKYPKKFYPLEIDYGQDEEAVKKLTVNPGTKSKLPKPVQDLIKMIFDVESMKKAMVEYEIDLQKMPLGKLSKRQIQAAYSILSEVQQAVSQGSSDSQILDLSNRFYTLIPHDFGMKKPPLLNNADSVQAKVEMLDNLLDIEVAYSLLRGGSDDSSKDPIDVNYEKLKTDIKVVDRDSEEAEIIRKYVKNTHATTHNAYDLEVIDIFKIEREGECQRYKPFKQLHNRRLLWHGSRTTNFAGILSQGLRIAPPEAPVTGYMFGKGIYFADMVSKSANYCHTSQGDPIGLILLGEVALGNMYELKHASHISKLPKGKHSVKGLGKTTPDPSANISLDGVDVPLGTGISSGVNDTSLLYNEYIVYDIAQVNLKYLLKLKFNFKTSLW

What is called IC50 is the concentration that gives 50% inhibition. Consider `CC[C@H]1C(=O)Nc2cc(CN3CCN(c4ccc(C(=O)NC)nc4F)CC3)cc3cnn1c23` [Compound 5-1], for which the IC50 in the data set on MDA-MB-436 cells amounted to 27.4 nM; in data set [1] (setting [4]) it was 1.35 nM.
For `CCC1C(=O)Nc2cc(CN3CCN(c4ccc(C(=O)NC)nc4F)CC3)cc3cnn1c23` (centres unmarked) [Compound 5], the IC50 came to 15.4 nM with MDA-MB-436 cells and 0.78 nM in data set [1] (setting [4]).
One may read the AUC(0-t) as the area under the concentration-time curve up to a stated or last time point. A high value points to more exposure. The term clearance denotes the rate of elimination divided by the concentration. Low values mean inefficient removal, high ones efficient removal. Broadly, the half-life is the time needed for the level to fall by half in the phase considered. Regarding `CNC(=O)c1ccc(N2CCN(Cc3cc4c5c(cnn5C(C)C(=O)N4)c3)CC2)c(Cl)n1` (centres unmarked) [Compound 6], in data set [2] (iv, mouse plasma, i.v.(1mg/kg)), the AUC(0-t) amounted to 5030 ng·h/mL, the clearance stood at 3.3 mL/min/kg and the half-life was 1.3 h. Also, the bioavailability in data set [2] (plasma, oral, mouse, p.o.(5mg/kg) versus i.v.(1mg/kg)) was found to be 117%. In addition, in data set [2] (po, mouse plasma, p.o.(5mg/kg)), the AUC(0-t) stood at 28700 ng·h/mL and the half-life was 2.7 h.
The compound `CCC1C(=O)Nc2cc(CN3CCN(c4ccc(C(=O)NC)nc4Cl)CC3)cc3cnn1c23` (centres unmarked) [Compound 8] had an IC50 in the data set with MDA-MB-436 cells of 12.7 nM.
As for `CNC(=O)c1ccc(N2CCN(Cc3cc4c5c(cnn5CC(=O)N4)c3)CC2)c(Cl)n1` [Compound 26], the IC50 was found to be 1440 nM in data set [3] (setting [5]) and 0.28 nM in data set [1] (setting [4]). Moreover, the “PARP1/2 Fold selectivity” value in data set [1] stood at 5150.
As to `CCN1C(=O)Nc2cc(CN3CCN(c4ccc(C(=O)NC)nc4C)CC3)cn3ncc1c23` [Compound 30], the IC50 in the data set with MDA-MB-436 cells amounted to 2.7 nM; in data set [3] (setting [5]), 211 nM; in data set [1] (setting [4]), 1.24 nM. In addition, the “PARP1/2 Fold selectivity” value in data set [1] came to 170.8.
Take `CCN1C(=O)Nc2cc(CN3CCN(c4ccc(C(=O)NC)nc4F)CC3)cn3ncc1c23` [Compound 33]: in the data set on MDA-MB-436 cells, the IC50 is under 1.52 nM.
The compound `CCN1C(=O)Nc2cc(CN3CCN(c4ccc(C(=O)NC)nc4Cl)CC3)cn3ncc1c23` [Compound 34] yielded an IC50 with MDA-MB-436 cells of 2.3 nM.
`CC1C(=O)Nc2cc(CN3CCN(c4ccc(C#N)cn4)CC3)cc3cnn1c23` (centres unmarked) [Compound 35] returned an IC50 with MDA-MB-436 cells of 213 nM.
`CNC(=O)c1ccc(N2CCN(Cc3cc4c5c(cnn5C5(CC5)C(=O)N4)c3)CC2)c(F)n1` [Compound 37]: the IC50 was under 1.52 nM in the data set on MDA-MB-436 cells, 8.7 nM in data set [3] (setting [5]) and 0.24 nM in data set [1] (setting [4]). Besides, in data set [1], the “PARP1/2 Fold selectivity” value is reported as 36.3.
On to `CNC(=O)c1ccc(N2CCN(Cc3cc4c5c(cnn5C5(CC5)C(=O)N4)c3)CC2)c(Cl)n1` [Compound 38], for which the half-maximal inhibitory concentration (IC50) with MDA-MB-436 cells was under 1.52 nM.
Same read-out and setting: the value for `CNC(=O)c1ccc(N2CCN(Cc3cc4c5c(cnn5C5(CC5)C(=O)N4)c3)CC2)c(C)n1` [Compound 39] was under 1.52 nM.
For the compound `CNC(=O)c1ccc(N2CCN(Cc3cc4cnn5c4c(c3F)NC(=O)C53CC3)CC2)c(Cl)n1` [Compound 41], the IC50 in the data set on MDA-MB-436 cells stood at 4.4 nM; in data set [3] (setting [5]), 71.9 nM; in data set [1] (setting [4]), 0.1 nM. In data set [1], the “PARP1/2 Fold selectivity” value is 719.
For `CNC(=O)c1ccc(N2CCN(Cc3cc4c5c(cnn5[C@@H](C5CC5)C(=O)N4)c3)CC2)c(Cl)n1` [Compound 43-1], in that order: 8.7 nM, 575 nM, 1.67 nM and 344.5.
For `CNC(=O)c1ccc(N2CCN(Cc3cc4c5c(cnn5[C@H](C5CC5)C(=O)N4)c3)CC2)c(Cl)n1` [Compound 43-2], the concentration for half-maximal inhibition (IC50) was determined as 1.7 nM in the data set with MDA-MB-436 cells, 139 nM in data set [3] (setting [5]) and 1.04 nM in data set [1] (setting [4]). Further, the “PARP1/2 Fold selectivity” value in data set [1] came to 133.3.
For `CNC(=O)c1ccc(N2CCN(Cc3cc4c5c(c3)ncn5[C@@H](C3CC3)C(=O)N4)CC2)c(C)n1` [Compound 49-1], in that order: 20.4 nM, 1310 nM, 0.71 nM and 1852.
For the compound `CNC(=O)c1ccc(N2CCN(Cc3cc4c5c(cnn5c3)N(C3CC3)C(=O)N4)CC2)c(F)n1` [Compound 53], the IC50 is 2.2 nM in the data set with MDA-MB-436 cells, 45.5 nM in data set [3] (setting [5]) and 2.16 nM in data set [1] (setting [4]). Also, in data set [1], the “PARP1/2 Fold selectivity” value came out at 21.1.
`CNC(=O)c1ccc(N2CCN(Cc3cc4c5c(cnn5c3)N(C(C)C)C(=O)N4)CC2)c(F)n1` [Compound 55]: the figures for the IC50 in data set [3] (setting [5]) and in data set [1] (setting [4]) were 1010 nM and 2.64 nM, respectively. Besides, the “PARP1/2 Fold selectivity” value in data set [1] came out at 382.
In the data set on MDA-MB-436 cells, `CNC(=O)c1ccc(N2CCN(Cc3cc4c5c(c(C)nn5c3)N(C)C(=O)N4)CC2)c(C)n1` [Compound 57] had an IC50 of 1.3 nM.
As for `CNC(=O)c1ccc(N2CCN(Cc3cc4c5c(c(C(F)(F)F)nn5c3)N(C)C(=O)N4)CC2)c(C)n1` [Compound 58], the IC50 with MDA-MB-436 cells came to 1.2 nM; in data set [3] (setting [5]) it was 204 nM; in data set [1] (setting [4]), 0.99 nM. Moreover, in data set [1], the “PARP1/2 Fold selectivity” value is on record as 206.
For the compound `CCCN1C(=O)Nc2cc(CN3CCN(c4ccc(C(=O)NC)nc4C)CC3)cn3ncc1c23` [Compound 62], the concentration for half-maximal inhibition (IC50) in the data set on MDA-MB-436 cells came to 20.9 nM; in data set [3] (setting [5]), 1400 nM; in data set [1] (setting [4]), 3.3 nM. Further, in data set [1], the “PARP1/2 Fold selectivity” value is 422.3.
With `CNC(=O)c1ccc(N2CCN(Cc3cc4c5c(cnn5c3)N(CCO)C(=O)N4)CC2)c(C)n1` [Compound 63], the concentration for half-maximal inhibition (IC50) in the data set with MDA-MB-436 cells is 16.8 nM; in data set [3] (setting [5]), 1830 nM; in data set [1] (setting [4]), 2.1 nM. For the same compound, the “PARP1/2 Fold selectivity” value in data set [1] was determined as 827.4.
For `CNC(=O)c1ccc(N2CCN(Cc3cc4c5c(cnn5c3)NC(=O)N4)CC2)c(C)n1` [Compound 64], half-maximal inhibition in the data set on MDA-MB-436 cells (IC50) required 17.5 nM.
On to `CNC(=O)c1ccc(N2CCN(Cc3cn4ncc5c4c(c3C)NC(=O)N5C3CC3)CC2)c(C)n1` [Compound 66], for which the IC50 with MDA-MB-436 cells worked out at 48.1 nM; in data set [3] (setting [5]), 1380 nM; in data set [1] (setting [4]) it was 3.3 nM. In data set [1], the “PARP1/2 Fold selectivity” value was 417.5.
Take `CNC(=O)c1ccc(N2CCN(Cc3cc4c5c(cnn5c3)N(CC(C)O)C(=O)N4)CC2)c(C)n1` (centres unmarked) [Compound 67]: the IC50 in the data set with MDA-MB-436 cells worked out at 392 nM.
Still for that read-out and setting: for `CNC(=O)c1ccc(N2CCN(Cc3cc4c5c(cnn5c3)N(CC3CCC3)C(=O)N4)CC2)c(C)n1` [Compound 69] the value was 720 nM.
With `CNC(=O)c1ccc(N2CCN(Cc3cc4c5c(cnn5c3)N(C3CCC3)C(=O)N4)C[C@H]2C)c(C)n1` [Compound 72], the IC50 was 474 nM in data set [3] (setting [5]) and 4.9 nM in data set [1] (setting [4]). Moreover, the “PARP1/2 Fold selectivity” value in data set [1] came out at 97.6.
For `CNC(=O)c1ccc(N2CCN(Cc3cc4c5c(cnn5c3)N(C3CCC3)C(=O)N4)CC2)c(Cl)n1` [Compound 73], in the data set with MDA-MB-436 cells, half-maximal inhibition (IC50) required 3.2 nM.
Same read-out and setting: the value for `CNC(=O)c1ccc(N2CCN(Cc3cc4c5c(cnn5c3)N(C3CCC3)C(=O)N4)[C@H](C)C2)c(C)n1` [Compound 79] was 21.8 nM; that for `CNC(=O)c1ccc(N2CCN(Cc3cc4c5c(cnn5c3)N(C3CCC3)C(=O)N4)[C@H](C)C2)c(Cl)n1` [Compound 80] was 18.7 nM.
For `CNC(=O)c1ccc(N2CCN(Cc3cc4c5c(c3)ncn5C(C3CCC3)C(=O)N4)CC2)c(Cl)n1` (centres unmarked) [Compound 81], the values for the IC50 (with MDA-MB-436 cells; in data set [3] (setting [5]); in data set [1] (setting [4])) were 4.6 nM, 2410 nM and 4.2 nM, respectively. Further, the “PARP1/2 Fold selectivity” value in data set [1] turned out to be 574.1.
Turning to `CCN1C(=O)Nc2cc(CN3CCN(c4ccc(C(=O)NC)nc4F)CC3)cc3c2c1nn3C` [Compound B1, 5-(4-((3-ethyl-1-methyl-4-oxo-1,3,4,5-tetrahydropyrazolo[3,4,5-d]quinazolin-7-yl)methyl)piperazine-1-yl)-6-fluoro-N-methylpicolinamide, reference compound], the IC50 in data set [3] worked out at 3.7 nM. For the same compound, in data set [1], the IC50 is 1.4 nM and the “PARP1/2 Fold selectivity” value amounted to 2.64.
